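GI50 is the concentration that inhibits growth by half. TGI: concentration producing complete growth inhibition.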
Experiments:
Assay in all cases: NCI anticancer screen, dose series, 384-well format
UACC-62 melanoma = tested on: UACC-62 melanoma
MDA-MB-468 breast = tested on: MDA-MB-468 breast
DU-145 prostate = tested on: DU-145 prostate
A549 NSCLC = tested on: A549 NSCLC
MCF7 breast = tested on: MCF7 breast
IGROV1 ovarian = tested on: IGROV1 ovarian
HOP-92 NSCLC = tested on: HOP-92 NSCLC
SN12C renal = tested on: SN12C renal
SK-MEL-2 melanoma = tested on: SK-MEL-2 melanoma
NCI-H226 lung = tested on: NCI-H226 lung
NCI-H522 lung = tested on: NCI-H522 lung
A498 renal = tested on: A498 renal
SNB-19 CNS = tested on: SNB-19 CNS
MALME-3M melanoma = tested on: MALME-3M melanoma
OVCAR-3 ovarian = tested on: OVCAR-3 ovarian
OVCAR-8 ovarian = tested on: OVCAR-8 ovarian
NCI-H460 NSCLC = tested on: NCI-H460 NSCLC
HCT-15 colon = tested on: HCT-15 colon
786-0 renal = tested on: 786-0 renal
RPMI-8226 leukemia = tested on: RPMI-8226 leukemia
TK-10 renal = tested on: TK-10 renal
HCC-2998 colon = tested on: HCC-2998 colon
NCI-H322M lung = tested on: NCI-H322M lung
MOLT-4 leukemia = tested on: MOLT-4 leukemia
CCRF-CEM leukemia = tested on: CCRF-CEM leukemia
HCT-116 colon = tested on: HCT-116 colon
LOX IMVI melanoma = tested on: LOX IMVI melanoma
ACHN renal = tested on: ACHN renal
T-47D breast = tested on: T-47D breast
COLO 205 colon = tested on: COLO 205 colon
SNB-75 CNS = tested on: SNB-75 CNS
HL-60(TB) leukemia = tested on: HL-60(TB) leukemia
HOP-62 NSCLC = tested on: HOP-62 NSCLC
MDA-MB-435 melanoma = tested on: MDA-MB-435 melanoma
NCI/ADR-RES ovarian = tested on: NCI/ADR-RES ovarian
SW-620 colon = tested on: SW-620 colon
SK-OV-3 ovarian = tested on: SK-OV-3 ovarian
SF-295 CNS = tested on: SF-295 CNS
UACC-257 melanoma = tested on: UACC-257 melanoma
KM12 colon = tested on: KM12 colon
BT-549 breast = tested on: BT-549 breast
K-562 leukemia = tested on: K-562 leukemia
RXF 393 renal = tested on: RXF 393 renal
UO-31 renal = tested on: UO-31 renal
MDA-MB-231 breast = tested on: MDA-MB-231 breast
SF-539 CNS = tested on: SF-539 CNS
EKVX NSCLC = tested on: EKVX NSCLC

C[C@H](NC(=O)c1c(N)nn2cccnc12)c1cc2cccc(C#Cc3cnn(C)c3)c2c(=O)n1-c1ccccc1
GI50 (UACC-62 melanoma): 1540 nM | TGI (UACC-62 melanoma): 12.1 µM | GI50 (MDA-MB-468 breast): 507 nM | TGI (MDA-MB-468 breast): 3.34 µM | GI50 (DU-145 prostate): 7.97 µM | TGI (DU-145 prostate): 23.8 µM | GI50 (A549 NSCLC): 4.45 µM | TGI (A549 NSCLC): 17.6 µM | GI50 (MCF7 breast): 1250 nM | TGI (MCF7 breast): 6.84 µM | GI50 (IGROV1 ovarian): 559 nM | TGI (IGROV1 ovarian): 2100 nM | GI50 (HOP-92 NSCLC): 470 nM | TGI (HOP-92 NSCLC): 4.04 µM | GI50 (SN12C renal): 4.38 µM | TGI (SN12C renal): 20 µM | GI50 (SK-MEL-2 melanoma): 12.4 µM | TGI (SK-MEL-2 melanoma): 24.9 µM | GI50 (NCI-H226 lung): 3.95 µM | TGI (NCI-H226 lung): 16.3 µM | GI50 (NCI-H522 lung): 4.55 µM | TGI (NCI-H522 lung): 18.7 µM | GI50 (A498 renal): 2720 nM | TGI (A498 renal): 14.8 µM | GI50 (SNB-19 CNS): 13 µM | TGI (SNB-19 CNS): 26.5 µM | GI50 (MALME-3M melanoma): 6.62 µM | TGI (MALME-3M melanoma): 20.5 µM | GI50 (OVCAR-3 ovarian): 2930 nM | TGI (OVCAR-3 ovarian): 14.9 µM | GI50 (OVCAR-8 ovarian): 8.07 µM | TGI (OVCAR-8 ovarian): 21.3 µM | GI50 (NCI-H460 NSCLC): 3.71 µM | TGI (NCI-H460 NSCLC): 16.7 µM | GI50 (HCT-15 colon): 5.88 µM | TGI (HCT-15 colon): 18.7 µM | GI50 ([…]-0 renal): 4.91 µM | TGI (786-0 renal): 17.2 µM | GI50 (RPMI-8226 leukemia): 1710 nM | TGI (RPMI-8226 leukemia): 3.73 µM | GI50 (TK-10 renal): 3.93 µM | TGI (TK-10 renal): 17.3 µM | GI50 (HCC-2998 colon): 3.75 µM | TGI (HCC-2998 colon): 15.1 µM | GI50 (NCI-H322M lung): 9.35 µM | TGI (NCI-H322M lung): 23.9 µM | GI50 (MOLT-4 leukemia): 847 nM | TGI (MOLT-4 leukemia): 2210 nM | GI50 (CCRF-CEM leukemia): 54.9 nM | TGI (CCRF-CEM leukemia): 1780 nM | GI50 (HCT-116 colon): 6.64 µM | TGI (HCT-116 colon): 20 µM | GI50 (LOX IMVI melanoma): 2950 nM | TGI (LOX IMVI melanoma): 12.7 µM | GI50 (ACHN renal): 4.31 µM | TGI (ACHN renal): 19.4 µM | GI50 (T-47D breast): 375 nM | TGI (T-47D breast): 2410 nM | GI50 (COLO 205 colon): 8.8 µM | TGI (COLO 205 colon): 22.7 µM | GI50 (SNB-75 CNS): 806 nM | TGI (SNB-75 CNS): 4.38 µM | GI50 (HL-60(TB) leukemia): 1150 nM | TGI (HL-60(TB) leukemia): 4.94 µM | GI50 (HOP-62 NSCLC): 7.24 µM | TGI (HOP-62 NSCLC): 20.4 µM | GI50 (MDA-MB-435 melanoma): 10.6 µM | TGI (MDA-MB-435 melanoma): 24.1 µM | GI50 (NCI/ADR-RES ovarian): 5.28 µM | TGI (NCI/ADR-RES ovarian): 16.2 µM | GI50 (SW-620 colon): 15.3 µM | TGI (SW-620 colon): 28.7 µM | GI50 (SK-OV-3 ovarian): 2190 nM | TGI (SK-OV-3 ovarian): 12.5 µM | GI50 (SF-295 CNS): 4.14 µM | TGI (SF-295 CNS): 17.1 µM | GI50 (UACC-257 melanoma): 8.67 µM | TGI (UACC-257 melanoma): 22.7 µM | GI50 (KM12 colon): 10.3 µM | TGI (KM12 colon): 23.2 µM | GI50 (BT-549 breast): 1480 nM | TGI (BT-549 breast): 9.11 µM | GI50 (K-562 leukemia): 7.56 µM | TGI (K-562 leukemia): 20.3 µM | GI50 (RXF 393 renal): 1300 nM | TGI (RXF 393 renal): 5.68 µM | GI50 (UO-31 renal): 3.18 µM | TGI (UO-31 renal): 14.1 µM | GI50 (MDA-MB-231 breast): 6.03 µM | TGI (MDA-MB-231 breast): 18.3 µM | GI50 (SF-539 CNS): 4.67 µM | TGI (SF-539 CNS): 17 µM | GI50 (EKVX NSCLC): 2600 nM | TGI (EKVX NSCLC): 15.3 µM
